The test system of one data set is MCF-7 cells. Kind of data set: MCF-7 GI50 determination (crystal violet growth inhibition). In kind it is cell-based, human. The procedure, abridged:
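MCF-7 cells seeded at 2×10^4 cells/well, grown 24 h drug-free, then exposed to 10-fold compound dilutions for 4 days. Glutaraldehyde-fixed cells stained with crystal violet, absorbance read at 570 nm; GI=100×(T/T0) against day-0 control OD, GI50 from growth inhibition versus concentration plots.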

A further data set has as its system HeLa S-3 cells. Briefly: HeLa GI50 determination (SRB growth inhibition). In kind it is cell-based, human. An outline of the steps: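 Cells plated at 2×10^4/well; day-0 plate TCA-fixed, test compounds added at 10-fold dilutions for 2 days. SRB staining, absorbance at 490 nm; GI = 100×(T−T0)/(C−T0), GI50 from growth inhibition vs. concentration plots.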
Where [1] appears, read: Homo sapiens, MCF7, 96 h, read-out: MCF-7 Cells GI50 (nM).
[2] abbreviates: Homo sapiens, HeLa S3, 48 h, read-out: HeLa Cells GI50 (nM).
[3] abbreviates: Homo sapiens, MCF7, 96 h, MCF-7 cells, 4 days of treatment, crystal violet, read-out: MCF-7 Cells GI50.
The mark [4] stands for this setting: Homo sapiens, HeLa S3, 48 h, HeLa S-3 cells, 2 days of treatment, sulforhodamine B, read-out: HeLa Cells GI50.

Read-outs that look alike come from different tables or passages of the source. Some results are limits rather than exact numbers.

`CC[C@]1(O)C[C@H]2CN(CCc3c([nH]c4ccc(SCc5ccccc5Cl)cc34)[C@@](C(=O)OC)(c3cc4c(cc3OC)N(C=O)[C@H]3[C@@](O)(C(=O)OC)[C@H](OC(C)=O)[C@]5(CC)C=CCN6CC[C@]43[C@@H]65)C2)C1` [Example 37, 12′-(2-chlorobenzylsulfanyl)vinblastine] displayed a melting point of 168 to 170 °C. The GI50 in the data set with MCF-7 cells (setting [1]) worked out at 200 nM. For the same molecule, the GI50 with HeLa S-3 cells (setting [2]) stood at 100 nM.

As to `CCc1ccc2[nH]c3c(c2c1)CCN1C[C@H](C[C@@](O)(CC)C1)C[C@]3(C(=O)OC)c1cc2c(cc1OC)N(C)[C@H]1[C@@](O)(C(=O)OC)[C@H](OC(C)=O)[C@]3(CC)C=CCN4CC[C@]21[C@@H]43` [Example 77, 12′-ethylvinblastine], the GI50 was determined as 0.6 nM in the data set on MCF-7 cells (setting [3]) and 0.3 nM in the data set with HeLa S-3 cells (setting [4]).

With `CCc1ccc2[nH]c3c(c2c1)CCN1C[C@H](C[C@@](O)(CC)C1)C[C@]3(C(=O)OC)c1cc2c(cc1OC)N(C=O)[C@H]1[C@@](O)(C(=O)OC)[C@H](OC(C)=O)[C@]3(CC)C=CCN4CC[C@]21[C@@H]43` [Example 78, 12′-ethylvincristine], the GI50 in the data set with MCF-7 cells (setting [3]) was determined as 10 nM; with HeLa S-3 cells (setting [4]), 5 nM.

With `CC[C@]1(O)C[C@H]2CN(CCc3c([nH]c4ccc(N(C)c5ccccc5)cc34)[C@@](C(=O)OC)(c3cc4c(cc3OC)N(C)[C@H]3[C@@](O)(C(=O)OC)[C@H](OC(C)=O)[C@]5(CC)C=CCN6CC[C@]43[C@@H]65)C2)C1` [Example 79, 12′-(N-methyl-N-phenylamino) vinblastine], the GI50 with MCF-7 cells (setting [1]) is more than 1000 nM; in the data set with HeLa S-3 cells (setting [2]) it was 700 nM.

For the molecule `CC[C@]1(O)C[C@H]2CN(CCc3c([nH]c4ccc(N)cc34)[C@@](C(=O)OC)(c3cc4c(cc3OC)N(C)[C@H]3[C@@](O)(C(=O)OC)[C@H](OC(C)=O)[C@]5(CC)C=CCN6CC[C@]43[C@@H]65)C2)C1` [Example 80, 12′-aminovinblastine], the GI50 in the data set on MCF-7 cells (setting [3]) and in the data set on HeLa S-3 cells (setting [4]) was 200 nM each time.

Consider `CC[C@]1(O)C[C@H]2CN(CCc3c([nH]c4ccc(N(C)C)cc34)[C@@](C(=O)OC)(c3cc4c(cc3OC)N(C)[C@H]3[C@@](O)(C(=O)OC)[C@H](OC(C)=O)[C@]5(CC)C=CCN6CC[C@]43[C@@H]65)C2)C1` [Example 81, 12′-(N,N-dimethylamino)vinblastine], for which the GI50 in the data set with MCF-7 cells (setting [3]) is 50 nM; in the data set on HeLa S-3 cells (setting [4]) it was 30 nM.

On to `CC[C@]1(O)C[C@H]2CN(CCc3c([nH]c4ccc(Nc5ccccc5)cc34)[C@@](C(=O)OC)(c3cc4c(cc3OC)N(C)[C@H]3[C@@](O)(C(=O)OC)[C@H](OC(C)=O)[C@]5(CC)C=CCN6CC[C@]43[C@@H]65)C2)C1` [Example 82, 12′-(phenylamino) vinblastine], for which the GI50 in the data set on MCF-7 cells (setting [1]) amounted to 600 nM; in the data set on HeLa S-3 cells (setting [2]), 300 nM.

For `CC[C@]1(O)C[C@H]2CN(CCc3c([nH]c4ccc(Nc5ccc(OC)cc5)cc34)[C@@](C(=O)OC)(c3cc4c(cc3OC)N(C)[C@H]3[C@@](O)(C(=O)OC)[C@H](OC(C)=O)[C@]5(CC)C=CCN6CC[C@]43[C@@H]65)C2)C1` [Example 83, 12′-(4-methoxyphenylamino)vinblastine], the GI50 was 500 nM with MCF-7 cells (setting [1]) and 300 nM with HeLa S-3 cells (setting [2]).

Turning to `CC[C@]1(O)C[C@H]2CN(CCc3c([nH]c4ccc(Nc5ccc(C(F)(F)F)cc5)cc34)[C@@](C(=O)OC)(c3cc4c(cc3OC)N(C)[C@H]3[C@@](O)(C(=O)OC)[C@H](OC(C)=O)[C@]5(CC)C=CCN6CC[C@]43[C@@H]65)C2)C1` [Example 84, 12′-(4-trifluoromethylphenylamino)vinblastine], the GI50 in the data set on MCF-7 cells (setting [1]) was 500 nM; in the data set on HeLa S-3 cells (setting [2]) it was 30 nM.

For `CC[C@]1(O)C[C@H]2CN(CCc3c([nH]c4ccc(N5CCCCC5)cc34)[C@@](C(=O)OC)(c3cc4c(cc3OC)N(C)[C@H]3[C@@](O)(C(=O)OC)[C@H](OC(C)=O)[C@]5(CC)C=CCN6CC[C@]43[C@@H]65)C2)C1` [Example 85, 12′-(1-piperidinyl) vinblastine], the GI50 in the data set on MCF-7 cells (setting [1]) came out at 30 nM; in the data set on HeLa S-3 cells (setting [2]), 20 nM.

Take `CC[C@]1(O)C[C@H]2CN(CCc3c([nH]c4ccc(N5CCOCC5)cc34)[C@@](C(=O)OC)(c3cc4c(cc3OC)N(C)[C@H]3[C@@](O)(C(=O)OC)[C@H](OC(C)=O)[C@]5(CC)C=CCN6CC[C@]43[C@@H]65)C2)C1` [Example 86, 12′-(4-morpholino) vinblastine]: the values for the GI50 with MCF-7 cells (setting [1]) and with HeLa S-3 cells (setting [2]) were 50 nM and 30 nM, respectively.

As to `CC[C@]1(O)C[C@H]2CN(CCc3c([nH]c4ccc(N5CCCC5)cc34)[C@@](C(=O)OC)(c3cc4c(cc3OC)N(C)[C@H]3[C@@](O)(C(=O)OC)[C@H](OC(C)=O)[C@]5(CC)C=CCN6CC[C@]43[C@@H]65)C2)C1` [Example 87, 12′-(pyrrolidin-1-yl) vinblastine], the GI50 worked out at 60 nM in the data set with MCF-7 cells (setting [1]) and 50 nM in the data set with HeLa S-3 cells (setting [2]).

Consider `CC[C@]1(O)C[C@H]2CN(CCc3c([nH]c4cc(I)c(I)cc34)[C@@](C(=O)OC)(c3cc4c(cc3OC)N(C=O)[C@H]3[C@@](O)(C(=O)OC)[C@H](OC(C)=O)[C@]5(CC)C=CCN6CC[C@]43[C@@H]65)C2)C1` [Example 90, 12′,13′-diiodovincristine], for which the GI50 in the data set on MCF-7 cells (setting [1]) and in the data set on HeLa S-3 cells (setting [2]) was 30 nM throughout.

As to `CC[C@]1(O)C[C@H]2CN(CCc3c([nH]c4cc(I)c(I)cc34)[C@@](C(=O)OC)(c3cc4c(cc3OC)N(C)[C@H]3[C@@](O)(C(=O)OC)[C@H](OC(C)=O)[C@]5(CC)C=CCN6CC[C@]43[C@@H]65)C2)C1` [Example 91, 12′,13′-diiodovinblastine], the GI50 with MCF-7 cells (setting [3]) worked out at 200 nM; in the data set with HeLa S-3 cells (setting [4]) it was 60 nM.

With `CC[C@]1(O)C[C@H]2CN(CCc3c([nH]c4cc(I)c(C)cc34)[C@@](C(=O)OC)(c3cc4c(cc3OC)N(C=O)[C@H]3[C@@](O)(C(=O)OC)[C@H](OC(C)=O)[C@]5(CC)C=CCN6CC[C@]43[C@@H]65)C2)C1` [Example 92, 13′-iodo-12′-methyl vincristine], the GI50 in the data set with MCF-7 cells (setting [1]) and with HeLa S-3 cells (setting [2]) was 30 nM in each case.

As to `CC[C@]1(O)C[C@H]2CN(CCc3c([nH]c4cc(C)c(C)cc34)[C@@](C(=O)OC)(c3cc4c(cc3OC)N(C=O)[C@H]3[C@@](O)(C(=O)OC)[C@H](OC(C)=O)[C@]5(CC)C=CCN6CC[C@]43[C@@H]65)C2)C1` [Example 93, 12′,13′-dimethyl vincristine], the values for the GI50 in the data set with MCF-7 cells (setting [1]) and with HeLa S-3 cells (setting [2]) were 30 nM and 20 nM, respectively.

Take `CCc1cc2[nH]c3c(c2cc1C)CCN1C[C@H](C[C@@](O)(CC)C1)C[C@]3(C(=O)OC)c1cc2c(cc1OC)N(C=O)[C@H]1[C@@](O)(C(=O)OC)[C@H](OC(C)=O)[C@]3(CC)C=CCN4CC[C@]21[C@@H]43` [Example 94, 13′-ethyl-12′-methyl vincristine]: the GI50 with MCF-7 cells (setting [1]) stood at 50 nM; with HeLa S-3 cells (setting [2]) it was 30 nM.

For `CCc1cc2[nH]c3c(c2cc1CC)CCN1C[C@H](C[C@@](O)(CC)C1)C[C@]3(C(=O)OC)c1cc2c(cc1OC)N(C=O)[C@H]1[C@@](O)(C(=O)OC)[C@H](OC(C)=O)[C@]3(CC)C=CCN4CC[C@]21[C@@H]43` [Example 95, 12′,13′-diethylvincristine], the GI50 in the data set on MCF-7 cells (setting [1]) worked out at 30 nM; in the data set on HeLa S-3 cells (setting [2]), 20 nM.

In the case of `CCC1=C[C@H]2CN(CCc3c([nH]c4ccc(I)cc34)[C@@](C(=O)OC)(c3cc4c(cc3OC)N(C)[C@H]3[C@@](O)(C(=O)OC)[C@H](OC(C)=O)[C@]5(CC)C=CCN6CC[C@]43[C@@H]65)C2)C1` [Example 98, 12′-iodoanhydro vinblastine], the values for the GI50 in the data set with MCF-7 cells (setting [1]) and in the data set with HeLa S-3 cells (setting [2]) were 305 nM and 50 nM, respectively.

As to `CCC1=C[C@H]2CN(CCc3c([nH]c4ccc(Br)cc34)[C@@](C(=O)OC)(c3cc4c(cc3OC)N(C=O)[C@H]3[C@@](O)(C(=O)OC)[C@H](OC(C)=O)[C@]5(CC)C=CCN6CC[C@]43[C@@H]65)C2)C1` [Example 99, 12′-bromoanhydro vincristine], the GI50 in the data set with MCF-7 cells (setting [3]) turned out to be 1 nM; in the data set with HeLa S-3 cells (setting [4]), 4 nM.

With “di(12′-vinblastine) disulfide [Example 60]”, the GI50 in the data set with MCF-7 cells (MCF-7 cells, 4 days of treatment, crystal violet, read-out: MCF-7 Cells GI50) was 20 nM; in the data set on HeLa S-3 cells (HeLa S-3 cells, 2 days of treatment, sulforhodamine B, read-out: HeLa Cells GI50), 10 nM.

Values taken from patent publication US7745619B2, “Vinca derivatives” (priority 2003, dated 2010).
